This note sets out measurements from ChEMBL document CHEMBL3638781, “Inhibitors of Œ=-secretase” (2015).

The assay concerns the target Beta-secretase 1 (Homo sapiens, UniProt P56817). Nature of the assay: Fluorescence Quench Assay: The inhibitory activity of compounds was assessed by a fluorescence quench assay of BACE1 activity using commercially available substrate HiLyte Fluor 488-[…](QXLT 520)-OH (SEQ ID NO:1) AnaSpec, San Jose, Calif.) and truncated human beta-secretase, BACE1 (amino acids 1-454) fused to a myc-his tag and secreted from HEK293/BACEect. cells into OptiMEM (Invitrogen). The substrate was dissolved at 1 mg/ml in DMSO.The assay was performed in the presence of OptiMEM (supernatant collected over 24 h and cleared from cellular debris by centrifugation) containing the ectodomain of BACE1, 25 ul water containing the desired 2-fold concentration of test compound and 2% DMSO, 1 uM substrate peptide, 20 mM NaOAc, pH 4.4, and 0.04% Triton-X100 in a total assay volume of 50 ul in a 384 well plate. In general, 25 ul of compound dilution were given to the plate followed by the addition of 10 ul of BACE1 containing OptiMEM diluted 1:10 in water.

pIC50: −log10 of the molar value.

Sequence of Beta-secretase 1 (P56817 whole entry, the tested form may be a part): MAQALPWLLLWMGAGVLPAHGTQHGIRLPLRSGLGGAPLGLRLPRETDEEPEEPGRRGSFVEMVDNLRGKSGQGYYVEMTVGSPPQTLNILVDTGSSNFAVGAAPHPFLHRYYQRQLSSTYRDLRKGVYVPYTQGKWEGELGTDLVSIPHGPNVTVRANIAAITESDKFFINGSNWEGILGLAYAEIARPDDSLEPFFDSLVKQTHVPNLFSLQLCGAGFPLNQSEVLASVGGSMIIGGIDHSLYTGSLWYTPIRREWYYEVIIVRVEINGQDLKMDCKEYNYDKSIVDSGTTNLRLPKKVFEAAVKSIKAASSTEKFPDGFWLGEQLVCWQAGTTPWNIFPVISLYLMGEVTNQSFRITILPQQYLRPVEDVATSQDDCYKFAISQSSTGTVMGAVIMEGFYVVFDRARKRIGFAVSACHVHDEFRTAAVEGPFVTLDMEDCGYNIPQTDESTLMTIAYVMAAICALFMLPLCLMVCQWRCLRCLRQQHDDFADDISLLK

One may read the pIC50 as the IC50 on a negative log10 scale, so that one unit is a factor of ten. In the case of `CO[C@H]1CC[C@@]2(Cc3ccc(C#N)cc3[C@]23N=C(N)N(Cc2ncccn2)C3=O)C[C@@H]1C`, the pIC50 is 7.96.
